Columns and labels:
[1] = target: Cytochrome P450 2C9 (Homo sapiens, UniProt P11712); conditions: bti-tn-5b1-4; note: in other assays of this panel Not Active means under 50% inhibition at 10 µM
[2] = target: Matrix metalloproteinase-9 (Homo sapiens, UniProt P14780); type: cell-based;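 note: inhibition of isolated MMP-9 enzyme activity toward a synthetic peptide substrate, from the DrugMatrix protease screening panel; in other assays of this panel Not Active means under 50% inhibition at 10 µM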
[3] = DRUGMATRIX: Calcium Channel Type L, Phenylalkylamine radioligand binding (ligand: [3H] (-)-Desmethoxyverapamil (D-888)); type: cell membranes, Rattus norvegicus, Wistar, Brain, Membrane; conditions: Not Active = under 50% inhibition at 10 µM
[4] = target: Cytochrome P450 2D6 (Homo sapiens, UniProt P10635); conditions: bti-tn-5b1-4; note: in other assays of this panel Not Active means under 50% inhibition at 10 µM
Sequence of Cytochrome P450 2D6 (P10635 whole entry): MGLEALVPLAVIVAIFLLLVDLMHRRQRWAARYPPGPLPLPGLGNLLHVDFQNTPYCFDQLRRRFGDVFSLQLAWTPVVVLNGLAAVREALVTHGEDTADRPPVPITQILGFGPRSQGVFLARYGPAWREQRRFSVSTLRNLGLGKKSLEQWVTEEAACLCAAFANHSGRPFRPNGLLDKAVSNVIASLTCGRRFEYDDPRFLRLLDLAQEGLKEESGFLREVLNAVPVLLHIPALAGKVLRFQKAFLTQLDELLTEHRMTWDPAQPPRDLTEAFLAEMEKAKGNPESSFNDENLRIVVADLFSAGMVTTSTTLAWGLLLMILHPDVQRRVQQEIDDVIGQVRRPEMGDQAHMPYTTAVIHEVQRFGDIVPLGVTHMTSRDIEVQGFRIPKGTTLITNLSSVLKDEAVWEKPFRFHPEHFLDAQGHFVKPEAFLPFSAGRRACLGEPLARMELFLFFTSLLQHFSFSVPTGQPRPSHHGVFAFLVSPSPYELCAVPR

[5] = DRUGMATRIX: Tumor Necrosis Factor (TNF), Non-Selective radioligand binding (ligand: [125I] TNF-alpha); type: cell membranes, Membrane; conditions: u-937; Not Active = under 50% inhibition at 10 µM
[6] = DRUGMATRIX: Calcium Channel Type L, Dihydropyridine radioligand binding (ligand: [3H] Nitrendipine); type: cell membranes, Rattus norvegicus, Wistar, Cerebral cortex, Membrane; conditions: Not Active = under 50% inhibition at 10 µM
[7] = DRUGMATRIX: Phorbol Ester radioligand binding (ligand: [3H] PDBu); type: cell membranes, Mus musculus, ICR, Brain, Membrane; conditions: Not Active = under 50% inhibition at 10 µM
[8] = DRUGMATRIX: ATPase, Na+/K+ enzyme inhibition (substrate: ATP); type: tissue-based, Sus scrofa, Heart; conditions: Not Active = under 50% inhibition at 10 µM
[9] = target: T1, 5-hydroxytryptamine receptor 2C (Homo sapiens, UniProt P28335); assay: DRUGMATRIX: Serotonin (5-Hydroxytryptamine) 5-HT2C radioligand binding (ligand: [3H] Mesulergine); type: cell membranes, CHO-K1, Membrane; conditions: cho-k1; Not Active = under 50% inhibition at 10 µM
T1 sequence (P28335 whole entry): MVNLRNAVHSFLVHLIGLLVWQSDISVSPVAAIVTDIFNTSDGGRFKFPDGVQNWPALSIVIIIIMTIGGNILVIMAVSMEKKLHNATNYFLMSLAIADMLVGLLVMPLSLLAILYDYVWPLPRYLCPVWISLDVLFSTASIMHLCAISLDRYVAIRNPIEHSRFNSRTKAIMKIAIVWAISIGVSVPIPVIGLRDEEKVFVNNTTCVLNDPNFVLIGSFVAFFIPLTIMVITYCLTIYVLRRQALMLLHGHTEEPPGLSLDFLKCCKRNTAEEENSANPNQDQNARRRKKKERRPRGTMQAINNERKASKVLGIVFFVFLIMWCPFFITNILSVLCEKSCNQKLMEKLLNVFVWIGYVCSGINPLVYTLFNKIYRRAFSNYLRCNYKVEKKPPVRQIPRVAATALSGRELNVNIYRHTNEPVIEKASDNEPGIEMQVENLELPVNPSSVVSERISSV

[10] = DRUGMATRIX: GABAA, Muscimol, Central radioligand binding (ligand: [3H] Muscimol); type: cell membranes, Rattus norvegicus, Wistar, Brain, Membrane; conditions: Not Active = under 50% inhibition at 10 µM
[11] = target: T2, Adenosine receptor A3 (Homo sapiens, UniProt P0DMS8); type: cell membranes, CHO-K1, Membrane; conditions: cho-k1;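 note: radioligand binding assay with AB-MECA serving as the labeled ligand; in other assays of this panel Not Active means under 50% inhibition at 10 µM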
T2 sequence (P0DMS8 whole entry): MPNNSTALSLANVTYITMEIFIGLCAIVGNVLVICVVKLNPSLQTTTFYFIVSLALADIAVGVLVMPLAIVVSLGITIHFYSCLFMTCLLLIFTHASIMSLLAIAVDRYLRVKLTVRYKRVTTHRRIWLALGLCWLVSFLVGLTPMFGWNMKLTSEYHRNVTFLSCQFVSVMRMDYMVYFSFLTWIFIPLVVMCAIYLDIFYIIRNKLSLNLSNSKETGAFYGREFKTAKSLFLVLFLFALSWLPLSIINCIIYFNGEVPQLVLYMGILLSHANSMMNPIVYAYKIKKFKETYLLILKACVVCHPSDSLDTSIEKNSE

[12] = target: Sigma non-opioid intracellular receptor 1 (Homo sapiens, UniProt Q99720); assay: DRUGMATRIX: Sigma1 radioligand binding (ligand: [3H] Haloperidol); type: cell membranes, Jurkat, Membrane; conditions: jurkat; Not Active = under 50% inhibition at 10 µM
Sequence of Sigma non-opioid intracellular receptor 1 (Q99720 whole entry): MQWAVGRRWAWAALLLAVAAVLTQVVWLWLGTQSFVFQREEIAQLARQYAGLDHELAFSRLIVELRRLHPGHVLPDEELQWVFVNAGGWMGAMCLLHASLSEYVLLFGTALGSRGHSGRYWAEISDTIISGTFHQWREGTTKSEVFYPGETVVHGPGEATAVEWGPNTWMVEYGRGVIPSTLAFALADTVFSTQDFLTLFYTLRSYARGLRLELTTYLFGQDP

[13] = target: T3, Calcitonin receptor (Homo sapiens, UniProt P30988); type: cell membranes, Membrane; conditions: t47d; note: in other assays of this panel Not Active means under 50% inhibition at 10 µM
T3 sequence (P30988 whole entry): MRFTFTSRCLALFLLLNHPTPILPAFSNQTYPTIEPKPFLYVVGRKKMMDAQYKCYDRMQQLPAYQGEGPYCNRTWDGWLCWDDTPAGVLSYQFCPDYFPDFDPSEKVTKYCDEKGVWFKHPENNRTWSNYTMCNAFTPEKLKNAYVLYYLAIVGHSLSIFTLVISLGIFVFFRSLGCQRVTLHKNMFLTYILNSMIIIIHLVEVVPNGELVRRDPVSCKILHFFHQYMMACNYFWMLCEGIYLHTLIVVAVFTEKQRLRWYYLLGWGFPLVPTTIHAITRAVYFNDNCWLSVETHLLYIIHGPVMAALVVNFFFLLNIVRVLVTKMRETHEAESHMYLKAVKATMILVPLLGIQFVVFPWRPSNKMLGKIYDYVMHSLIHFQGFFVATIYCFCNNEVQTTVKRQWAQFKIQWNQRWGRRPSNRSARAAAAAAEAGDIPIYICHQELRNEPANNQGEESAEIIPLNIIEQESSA

[14] = target: T4, Alpha-1B adrenergic receptor (Rattus norvegicus, UniProt P15823); assay: DRUGMATRIX: Alpha-1B adrenergic receptor radioligand binding (ligand: prazosin); type: cell membranes, Wistar, Liver, Membrane; conditions: Not Active = under 50% inhibition at 10 µM
T4 sequence (P15823 whole entry): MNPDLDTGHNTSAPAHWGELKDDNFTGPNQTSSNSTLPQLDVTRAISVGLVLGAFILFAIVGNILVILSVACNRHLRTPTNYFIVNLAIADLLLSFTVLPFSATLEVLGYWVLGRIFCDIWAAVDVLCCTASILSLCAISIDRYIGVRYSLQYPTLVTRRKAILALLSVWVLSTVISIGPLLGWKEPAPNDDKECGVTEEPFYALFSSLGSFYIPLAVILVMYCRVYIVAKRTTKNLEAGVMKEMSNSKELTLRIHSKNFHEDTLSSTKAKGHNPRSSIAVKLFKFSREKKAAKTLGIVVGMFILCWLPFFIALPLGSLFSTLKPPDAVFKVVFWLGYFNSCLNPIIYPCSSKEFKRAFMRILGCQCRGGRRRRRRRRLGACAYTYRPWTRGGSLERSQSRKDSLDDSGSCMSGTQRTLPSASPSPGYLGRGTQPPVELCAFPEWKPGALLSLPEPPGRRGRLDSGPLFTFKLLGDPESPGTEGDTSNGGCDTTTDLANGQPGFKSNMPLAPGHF

Sequence of Cytochrome P450 2C9 (P11712 whole entry): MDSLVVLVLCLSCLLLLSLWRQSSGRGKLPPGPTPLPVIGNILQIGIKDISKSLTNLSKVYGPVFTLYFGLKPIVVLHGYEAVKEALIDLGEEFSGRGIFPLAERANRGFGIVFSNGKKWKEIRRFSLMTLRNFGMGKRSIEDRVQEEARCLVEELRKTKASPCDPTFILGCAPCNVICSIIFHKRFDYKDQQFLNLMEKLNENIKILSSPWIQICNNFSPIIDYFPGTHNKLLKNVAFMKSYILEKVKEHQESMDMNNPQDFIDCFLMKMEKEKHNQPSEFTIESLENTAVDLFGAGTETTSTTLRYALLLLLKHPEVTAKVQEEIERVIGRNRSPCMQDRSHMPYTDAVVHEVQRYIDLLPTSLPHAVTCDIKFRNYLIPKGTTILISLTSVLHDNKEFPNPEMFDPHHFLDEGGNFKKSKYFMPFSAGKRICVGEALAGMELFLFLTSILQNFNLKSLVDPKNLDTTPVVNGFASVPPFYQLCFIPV
Sequence of Matrix metalloproteinase-9 (P14780 whole entry): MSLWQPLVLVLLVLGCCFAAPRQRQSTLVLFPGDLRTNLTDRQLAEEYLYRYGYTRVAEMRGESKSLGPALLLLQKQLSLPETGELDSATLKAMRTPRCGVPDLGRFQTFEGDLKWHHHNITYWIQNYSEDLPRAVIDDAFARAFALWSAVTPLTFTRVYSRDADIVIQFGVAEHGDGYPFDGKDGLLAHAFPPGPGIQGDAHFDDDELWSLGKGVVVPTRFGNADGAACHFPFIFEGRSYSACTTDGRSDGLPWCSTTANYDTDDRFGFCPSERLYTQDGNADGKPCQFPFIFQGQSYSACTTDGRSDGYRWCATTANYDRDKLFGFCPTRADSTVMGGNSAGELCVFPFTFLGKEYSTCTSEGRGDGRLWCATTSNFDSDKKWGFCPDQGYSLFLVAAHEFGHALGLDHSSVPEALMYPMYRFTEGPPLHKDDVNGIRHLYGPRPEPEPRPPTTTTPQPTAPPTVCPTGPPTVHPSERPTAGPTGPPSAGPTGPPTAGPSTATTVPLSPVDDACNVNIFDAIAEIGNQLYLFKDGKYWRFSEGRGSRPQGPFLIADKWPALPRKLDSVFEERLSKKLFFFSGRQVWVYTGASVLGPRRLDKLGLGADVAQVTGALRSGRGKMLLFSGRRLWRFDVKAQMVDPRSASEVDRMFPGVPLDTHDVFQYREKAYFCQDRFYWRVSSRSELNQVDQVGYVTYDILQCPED

C/C=C1\[C@H]2C=C(C)C[C@]1(N)c1ccc(=O)[nH]c1C2 [HUPERZINE A]
Not Active: IC50 [1] | Ki [1] | IC50 [2] | IC50 [3] | Ki [3] | IC50 [4] | Ki [4] | IC50 [5] | Ki [5] | IC50 [6] | Ki [6] | IC50 [7] | Ki [7] | IC50 [8] | Ki [8] | IC50 [9] | IC50 [10] | Ki [10] | IC50 [11] | IC50 [12] | IC50 [13] | IC50 [14]

NS(=O)(=O)c1cc2c(cc1Cl)NCNS2(=O)=O [HYDROCHLOROTHIAZIDE]
Not Active: IC50 [1] | Ki [1] | IC50 [2] | IC50 [3] | Ki [3] | IC50 [4] | Ki [4] | IC50 [5] | Ki [5] | IC50 [6] | Ki [6] | IC50 [7] | Ki [7] | IC50 [8] | Ki [8] | IC50 [9] | IC50 [10] | Ki [10] | IC50 [11] | IC50 [12] | IC50 [13] | IC50 [14]

O=C1CN=C(c2ccccc2)c2cc([N+](=O)[O-])ccc2N1 [NITRAZEPAM]
Not Active: IC50 [1] | Ki [1] | IC50 [2] | IC50 [3] | Ki [3] | IC50 [4] | Ki [4] | IC50 [5] | Ki [5] | IC50 [6] | Ki [6] | IC50 [7] | Ki [7] | IC50 [8] | Ki [8] | IC50 [9] | IC50 [10] | Ki [10] | IC50 [11] | IC50 [12] | IC50 [13] | IC50 [14]

CC1COc2c(N3CCN(C)CC3)c(F)cc3c(=O)c(C(=O)O)cn1c23 (centres undefined) [OFLOXACIN]
Not Active: IC50 [1] | Ki [1] | IC50 [2] | IC50 [3] | Ki [3] | IC50 [4] | Ki [4] | IC50 [5] | Ki [5] | IC50 [6] | Ki [6] | IC50 [7] | Ki [7] | IC50 [8] | Ki [8] | IC50 [9] | IC50 [10] | Ki [10] | IC50 [11] | IC50 [12] | IC50 [13] | IC50 [14]

CN(C)[C@@H]1C(O)=C(C(N)=O)C(=O)[C@@]2(O)C(O)=C3C(=O)c4c(O)cccc4[C@@](C)(O)[C@H]3[C@H](O)[C@@H]12 [OXYTETRACYCLINE]
Not Active: IC50 [1] | Ki [1] | IC50 [2] | IC50 [3] | Ki [3] | IC50 [4] | Ki [4] | IC50 [5] | Ki [5] | IC50 [6] | Ki [6] | IC50 [7] | Ki [7] | IC50 [8] | Ki [8] | IC50 [9] | IC50 [10] | Ki [10] | IC50 [11] | IC50 [12] | IC50 [13] | IC50 [14]

CC(C)(S)[C@@H](N)C(=O)O [PENICILLAMINE]
Not Active: IC50 [1] | Ki [1] | IC50 [2] | IC50 [3] | Ki [3] | IC50 [4] | Ki [4] | IC50 [5] | Ki [5] | IC50 [6] | Ki [6] | IC50 [7] | Ki [7] | IC50 [8] | Ki [8] | IC50 [9] | IC50 [10] | Ki [10] | IC50 [11] | IC50 [12] | IC50 [13] | IC50 [14]

CC(=O)CCCCn1c(=O)c2c(ncn2C)n(C)c1=O [PENTOXIFYLLINE]
Not Active: IC50 [1] | Ki [1] | IC50 [2] | IC50 [3] | Ki [3] | IC50 [4] | Ki [4] | IC50 [5] | Ki [5] | IC50 [6] | Ki [6] | IC50 [7] | Ki [7] | IC50 [8] | Ki [8] | IC50 [9] | IC50 [10] | Ki [10] | IC50 [11] | IC50 [12] | IC50 [13] | IC50 [14]

Reference: ChEMBL document CHEMBL1909046, “DrugMatrix in vitro pharmacology data”
